# pIC50: −log10 of the molar value.
# Columns and labels:
# [1] = biological target: Cathepsin D (Cat D) (Homo sapiens (Human), UniProt P07339); experiment: In vitro enzymatic Cathepsin D (Cat D) FRET assay; assay type: biochemical; conditions: read-out: CatD IC50
# [2] = biological target: Beta Secretase enzyme (BACE) (Homo sapiens (Human), UniProt P56817); experiment: In vitro enzymatic BACE FRET assay; assay type: biochemical; conditions: read-out: BACE1 Enzyme assay IC50
# Chain of Beta Secretase enzyme (BACE) (P56817 46-501): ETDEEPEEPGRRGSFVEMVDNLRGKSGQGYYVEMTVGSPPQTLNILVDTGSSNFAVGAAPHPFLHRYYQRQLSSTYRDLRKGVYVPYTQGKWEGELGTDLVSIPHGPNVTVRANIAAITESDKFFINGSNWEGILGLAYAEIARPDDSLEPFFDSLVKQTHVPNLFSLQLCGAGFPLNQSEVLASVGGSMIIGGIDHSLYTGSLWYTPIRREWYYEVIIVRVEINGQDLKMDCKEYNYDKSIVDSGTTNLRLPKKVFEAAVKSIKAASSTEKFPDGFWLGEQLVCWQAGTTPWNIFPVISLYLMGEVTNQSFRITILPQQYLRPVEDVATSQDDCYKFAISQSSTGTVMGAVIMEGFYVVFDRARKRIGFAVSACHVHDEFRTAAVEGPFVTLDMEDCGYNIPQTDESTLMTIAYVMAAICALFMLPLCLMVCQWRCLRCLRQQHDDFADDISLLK
# Chain of Cathepsin D (Cat D) (P07339 65-412, species assumed): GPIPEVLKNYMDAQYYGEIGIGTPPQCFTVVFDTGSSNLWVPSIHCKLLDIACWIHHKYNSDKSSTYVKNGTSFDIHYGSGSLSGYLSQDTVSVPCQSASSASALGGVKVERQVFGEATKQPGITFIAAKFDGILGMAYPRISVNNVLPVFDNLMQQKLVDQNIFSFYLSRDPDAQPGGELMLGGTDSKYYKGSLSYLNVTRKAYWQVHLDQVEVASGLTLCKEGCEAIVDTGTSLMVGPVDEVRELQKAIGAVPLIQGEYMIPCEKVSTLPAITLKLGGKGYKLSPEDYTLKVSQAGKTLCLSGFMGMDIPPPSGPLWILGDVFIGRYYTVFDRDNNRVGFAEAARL
Compound,pIC50 [1],pIC50 [2]
"NC1=N[C@@](c2cc(N[C@H]3CCCc4cc(Br)cnc43)ccc2F)(C(F)F)[C@H]2C[C@H]2O1 (mixture of isomers) [Example 382, (1R,5S,6R)-5-(5-(((R)-3-bromo-5,6,7,8-tetrahydroquinolin-8-yl)amino)-2-fluorophenyl)-5-(difluoromethyl)-2-oxa-4-azabicyclo[4.1.0]hept-3-en-3-amine and (1R,5S,6R)-5-(5-(((S)-3-bromo-5,6,7,8-tetrahydroquinolin-8-yl)amino)-2-fluorophenyl)-5-(difluoromethyl)-2-oxa-4-azabicyclo[4.1.0]hept-3-en-3-amine]",3.58,5.51
"NC1=N[C@@](c2cc(N[C@@H]3CCc4cc(Br)ccc43)ccc2F)(C(F)F)[C@H]2C[C@H]2O1.NC1=N[C@@](c2cc(N[C@H]3CCc4cc(Br)ccc43)ccc2F)(C(F)F)[C@H]2C[C@H]2O1 (mixture of isomers) [Example 384, (1R,5S,6R)-5-(5-(((R)-5-bromo-2,3-dihydro-1H-inden-1-yl)amino)-2-fluorophenyl)-5-(difluoromethyl)-2-oxa-4-azabicyclo[4.1.0]hept-3-en-3-amine and (1R,5S,6R)-5-(5-(((S)-5-bromo-2,3-dihydro-1H-inden-1-yl)amino)-2-fluorophenyl)-5-(difluoromethyl)-2-oxa-4-azabicyclo[4.1.0]hept-3-en-3-amine]",4.08,6.50
"NC1=N[C@@](c2cc(N[C@H](c3ccc(Cl)cn3)C(F)(F)F)ccc2F)(C(F)F)[C@H]2C[C@H]2O1 (mixture of isomers) [Example 422, (1R,5S,6R)-5-(5-(((R)-1-(5-chloropyridin-2-yl)-2,2,2-trifluoroethyl)amino)-2-fluorophenyl)-5-(difluoromethyl)-2-oxa-4-azabicyclo[4.1.0]hept-3-en-3-amine and (1R,5S,6R)-5-(5-(((S)-1-(5-chloropyridin-2-yl)-2,2,2-trifluoroethyl)amino-2-fluorophenyl)-5-(difluoromethyl)-2-oxa-4-azabicyclo[4.1.0]hept-3-en-3-amine]",4.17,5.28
"Cc1cc(C#N)cnc1C(=O)Nc1cc(F)c(Cl)c([C@]2(CF)N=C(N)O[C@H]3C[C@H]32)c1 (racemic) [Example 137, N-(3-((1R/S,5S/R,6R/S)-3-amino-5-(fluoromethyl)-2-oxa-4-azabicyclo[4.1.0]hept-3-en-5-yl)-4-chloro-5-fluorophenyl)-5-cyano-3-methylpicolinamide]",3.27,7.35
"NC1=N[C@](c2cc(NC(=O)c3nn(C(F)F)cc3Cl)ccc2Cl)(C(F)F)[C@@H]2C[C@@H]2O1 (racemic) [Example 220, N-(3-((1(R,S),5(S,R),6(R,S))-3-amino-5-(difluoromethyl)-2-oxa-4-azabicyclo[4.1.0]hept-3-en-5-yl)-4-chlorophenyl)-4-chloro-1-(difluoromethyl)-1H-pyrazole-3-carboxamide]",3.16,7.73
"Cc1cc(NC(=O)c2ccc(Cl)cn2)cc([C@@]2(C(F)F)N=C(N)O[C@@H]3C[C@@H]32)c1F [Example 121, N-(3-((1R,5S,6R)-3-amino-5-(difluoromethyl)-2-oxa-4-azabicyclo[4.1.0]hept-3-en-5-yl)-4-fluoro-5-methylphenyl)-5-chloropicolinamide]",3.69,
"Cc1cc(NC(=O)c2ccc(Cl)cn2)cc([C@@]2(C(F)F)N=C(N)O[C@@H]3C[C@@H]32)c1F [Example 123, N-(3-((1R,5S,6R)-3-amino-5-(difluoromethyl)-2-oxa-4-azabicyclo[4.1.0]hept-3-en-5-yl)-4-fluoro-5-methylphenyl)-5-chloropicolinamide]",3.59,
"Cc1cc(NC(=O)c2ccc(Cl)cn2)cc([C@]2(C(F)F)N=C(N)O[C@H]3C[C@H]32)c1F [Example 124, N-(3-((1 S,5R,6S)-3-amino-5-(difluoromethyl)-2-oxa-4-azabicyclo[4.1.0]hept-3-en-5-yl)-4-fluoro-5-methylphenyl)-5-chloropicolinamide]",2.91,
"C#CCOc1ccc(C(=O)Nc2ccc(F)c([C@@]3(CF)N=C(N)O[C@@H]4C[C@@H]43)c2)nc1 [Example 205, N-(3-((1R,5S,6R)-3-amino-5-(fluoromethyl)-2-oxa-4-azabicyclo[4.1.0]hept-3-en-5-yl)-4-fluorophenyl)-5-(prop-2-yn-1-yloxy)picolinamide]",3.09,
"Cc1cc(NC(=O)c2ncc(C#N)cn2)cc([C@@]2(C(F)F)N=C(N)O[C@@H]3C[C@@H]32)c1F [Example 298, N-(3-((1R,5S,6R)-3-amino-5-(difluoromethyl)-2-oxa-4-azabicyclo[4.1.0]hept-3-en-5-yl)-4-fluoro-5-methylphenyl)-5-cyanopyrimidine-2-carboxamide]",< 3.40,
"NC1=N[C@@](c2cc(Nc3ncc(F)c4cc(Cl)cnc34)ccc2F)(C(F)F)[C@H]2C[C@H]2O1 [Example 361, (1R,5S,6R)-5-(5-((3-chloro-5-fluoro-1,7-naphthyridin-8-yl)amino)-2-fluorophenyl)-5-(difluoromethyl)-2-oxa-4-azabicyclo[4.1.0]hept-3-en-3-amine]",< 3.40,
"N=C1N[C@](CF)(c2cc(-c3cncc(F)c3)c(CO)cc2F)[C@H]2CC2O1 (stereo partly drawn) [Example 433, (5-fluoro-4-([(1R,S),(5S,R),(6R,S)]-5-(fluoromethyl)-3-imino-2-oxa-4-azabicyclo[4.1.0]heptan-5-yl)-2-(5-fluoropyridin-3-yl)phenyl)methanol]",,4.64
"COC(=O)c1ccc(C(=O)Nc2cc(F)c(F)c([C@]3(C(F)F)N=C(N)O[C@H]4C[C@H]43)c2)nc1 [Example 436, methyl 6-((3-((1S,5R,6S)-3-amino-5-(difluoromethyl)-2-oxa-4-azabicyclo[4.1.0]hept-3-en-5-yl)-4,5-difluorophenyl)carbamoyl)nicotinate]",3.46,
"(R)-4-((3-((1R,5S,6R)-3-amino-5-(difluoromethyl)-2-oxa-4-azabicyclo[4.1.0]hept-3-en-5-yl)-4-fluorophenyl)amino)chroman-7-carbonitrile and (S)-4-((3-((1R,5S,6R)-3-amino-5-(difluoromethyl)-2-oxa-4-azabicyclo[4.1.0]hept-3-en-5-yl)-4-fluorophenyl)amino)chroman-7-carbonitrile [Example 383]",,6.01

# Continued, values first:
pIC50 [1],pIC50 [2],Compound
3.24,8.41,"CC#CCOc1cnc(C(=O)Nc2ccc(Cl)c([C@]3(C(F)F)N=C(N)O[C@H]4C[C@H]43)c2)cn1 (racemic) [Example 210, N-(3-([1(R,S),5(S,R),6(R,S)]-3-amino-5-(difluoromethyl)-2-oxa-4-azabicyclo[4.1.0]hept-3-en-5-yl)-4-chlorophenyl)-5-(but-2-yn-1-yloxy)pyrazine-2-carboxamide]"
4.18,8.20,"C#CCOc1cnc(C(=O)Nc2ccc(Cl)c([C@]3(C(F)F)N=C(N)O[C@H]4C[C@H]43)c2)cn1 (racemic) [Example 219, N-(3-((1(S,R),5(R,S),6(S,R))-3-amino-5-(difluoromethyl)-2-oxa-4-azabicyclo[4.1.0]hept-3-en-5-yl)-4-chlorophenyl)-5-(prop-2-yn-1-yloxy)pyrazine-2-carboxamide]"
3.14,,"Cc1cc(C#N)cnc1C(=O)Nc1cc(C)c(F)c([C@@]2(C(F)F)N=C(N)O[C@@H]3C[C@@H]32)c1 [Example 132, N-(3-((1R,5S,6R)-3-amino-5-(difluoromethyl)-2-oxa-4-azabicyclo[4.1.0]hept-3-en-5-yl)-4-fluoro-5-methylphenyl)-5-cyano-3-methylpicolinamide]"
3.66,,"COc1c(F)cc(NC(=O)c2ccc(Cl)cn2)cc1[C@@]1(CF)N=C(N)O[C@@H]2C[C@@H]21 [Example 145, N-(3-((1R,5S,6R)-3-amino-5-(fluoromethyl)-2-oxa-4-azabicyclo[4.1.0]hept-3-en-5-yl)-5-fluoro-4-methoxyphenyl)-5-chloropicolinamide]"
3.11,,"COc1c(F)cc(NC(=O)c2ccc(Cl)cn2)cc1[C@]1(CF)N=C(N)O[C@H]2C[C@H]21 [Example 146, N-(3-((1S,5R,6S)-3-amino-5-(fluoromethyl)-2-oxa-4-azabicyclo[4.1.0]hept-3-en-5-yl)-5-fluoro-4-methoxyphenyl)-5-chloropicolinamide]"
3.07,,"C#C[C@@H](C)Oc1cnc(C(=O)Nc2ccc(F)c([C@@]3(C(F)F)N=C(N)O[C@@H]4C[C@@H]43)c2)cn1 [Example 148, N-(3-((1R,5S,6R)-3-amino-5-(difluoromethyl)-2-oxa-4-azabicyclo[4.1.0]hept-3-en-5-yl)-4-fluorophenyl)-5-((R)-but-3-yn-2-yloxy)pyrazine-2-carboxamide]"
4.25,,"NC1=N[C@@](c2cc(NC(=O)c3coc(CF)n3)ccc2F)(C(F)F)[C@H]2C[C@H]2O1 [Example 168, N-(3-((1R,5S,6R)-3-amino-5-(difluoromethyl)-2-oxa-4-azabicyclo[4.1.0]hept-3-en-5-yl)-4-fluorophenyl)-2-(fluoromethyl)oxazole-4-carboxamide]"
3.15,,"Cc1ccc(NC(=O)c2ccc(C#N)cn2)cc1[C@@]1(C(F)F)N=C(N)O[C@@H]2C[C@@H]21 [Example 269, N-(3-((1R,5S,6R)-3-amino-5-(difluoromethyl)-2-oxa-4-azabicyclo[4.1.0]hept-3-en-5-yl)-4-methylphenyl)-5-cyanopicolinamide]"
3.33,,"C#Cc1ccc(C(=O)Nc2ccc(F)c([C@@]3(C(F)F)N=C(N)O[C@@H]4C[C@@H]43)c2)nc1 [Example 313, N-(3-((1R,5S,6R)-3-amino-5-(difluoromethyl)-2-oxa-4-azabicyclo[4.1.0]hept-3-en-5-yl)-4-fluorophenyl)-5-ethynylpicolinamide]"
3.79,,"NC1=N[C@@](c2cc(NC3(c4ccc(Cl)cn4)COC3)ccc2F)(C(F)F)[C@H]2C[C@H]2O1 [Example 332, (1R,5S,6R)-5-(5-((3-(5-chloropyridin-2-yl)oxetan-3-yl)amino)-2-fluorophenyl)-5-(difluoromethyl)-2-oxa-4-azabicyclo[4.1.0]hept-3-en-3-amine]"

# From US9085576B2 (AMGEN INC., priority 2013, dated 2015)
